Assay results reported in US20260355199A1, “COMPOSITIONS AND METHODS FOR TREATING OR PREVENTING NONALCOHOLIC STEATOHEPATITIS (NASH), ANOREXIA, DEPRESSION, ENDOMETRIOSIS, AND OTHER DISEASES OR DISORDERS” (priority 2022, published 2026).
Entries after “also recorded” stand apart in the source; their conditions may differ.

How the values were obtained:
[1] = test system: TET3; assay: TET3 protein level (immunoblot/immunofluorescence) in GT1-7 cells; format: cell-based, mouse; conditions: 10 μM
Method: Mouse GT1-7 hypothalamic neuronal cell line (Sigma-Aldrich, SCC116), human SH-SY5Y neuronal blastoma cell line (ATCC, CRL-2266), and embryonic mouse hypothalamus cell line N11 (mHypoE-N11) (Cedarlane, CLU107) were purchased and cultured according to the manufacturers' instructions. For siRNA transfection in a 24-well plate scale, cells were seeded at a density of 2×10^5 cells/well the day before transfection. To prepare siRNA transfection solution for each well of cells, 5 pmol of NT siRNA (non-targeting control siRNA, AM4636, Ambion), Tet3 siRNA (siRNA specifically targeting mouse Tet3, 4390815/s101483, Ambion), or TET3 siRNA (siRNA specifically targeting human TET3, 4392420/s47238, Ambion) (Cao et al., 2019, Oncogene, 38:5356-5366; Xu et al., 2020, Cell Rep., 30:1310-1318) were mixed with 25 μl of OPTI-MEM (Gibco, 31985-070) by gentle pipetting (Cao, T. et al., 2019, Oncogene, 38:5356-5366; Xu, Y. et al., 2020, Cell Reports, 30:1310-1318 e5). In parallel, 1.5 μl of Lipofectamine RNAiMAX (Invitrogen, 13778-150) was mixed with 25 μl of OPTI-MEM by gentle pipetting. […]
For Bobcat339 treatment (FIG. 15A and FIG. 15B), GT1-7 cells grown in 24-well plates at 2×10^5 cells/well were incubated with vehicle or Bobcat339 at a final concentration of 10 μM for 6 h, followed by RNA and protein extractions. […] Protein and RNA were isolated 48 h later and analyzed. […]

[2] = test system: TET2; conditions: cited from earlier work
[3] = test system: Tet3 mRNA; assay: Tet3/Tet2 mRNA in RAW 264.7 cells; format: cell-based, mouse; conditions: RAW 264.7, 10 μM, 24 h
Method: For siRNA transfection in a 24-well plate scale of Raw 264.7 cells, 10 pmol of NT siRNA (AM4636, Ambion) or Tet3 siRNA (4390815/s101483, Ambion) was mixed with 100 μL of OPTI-MEM (Gibco, 31985-070) by gentle pipetting. In parallel, 3 μL of Lipofectamine RNAiMAX (Invitrogen, 13778-150) was mixed with 100 μL of OPTI-MEM by gentle pipetting. Following 5 min of incubation at RT, the two were combined and the resulting 200 μL of transfection solution was added to each well of cells. After 24 h of incubation at […] in a 5% humidified CO2 tissue culture incubator, 300 μL of growth media was added and incubation was continued until cell harvesting.
Bobcat339 Treatment of Cultured Cells Bobcat339 powder (Sigma-Aldrich, SML2611) was freshly dissolved in DMSO at a concentration of 5 mM and filtered through a 0.22 micron. Cells grown at a density of 80-90% were incubated in growth media with vehicle (DMSO) or Bobcat339 at a final concentration of 10 μM for 24 h, followed by RNA and protein extraction.
Total RNAs were extracted from cells using PureLink RNA Mini Kit. 0.5-1 μg total RNA was reverse transcribed to cDNA in a reaction volume of 20 μL using PrimeScript RT Reagent Kit. Real-time quantitative PCR was performed in a 15 μL reaction volume containing 0.5-1 μL of cDNA using SsoAdvanced Universal SYBR Green Supermix in a Bio-Rad iCycler. Gene expression levels were normalized against RPLP0.

## Nc1nc(=O)n(-c2cccc(-c3ccccc3)c2)cc1Cl [Bobcat339, 4-Amino-1-[1,1′-biphenyl]-3-yl-5-chloro-2(1H)-pyrimidinone]
[1]; 6 h
  TET3 protein level: a decrease in the protein level of TET3; also recorded: rapidly decreased the level of TET3 protein; also recorded: decreased TET3 expression at the protein level
[1]; 48 h, without exogenous TET3
  TET3 protein level: decreased the level of TET3 protein
[2]; in the absence of contaminating copper (II)
  inhibitory activity against TET2: negligible inhibitory activity
[2]; initially reported
  inhibition of enzymatic activity of TET2: inhibit the enzymatic activity
[3]
  Tet3 mRNA: without altering its mRNA abundance; also recorded: no significant difference in expression between the groups
